Experimental data published in patent publication US8512725B2, “Method, material and system for controlled release of anti-microbial agents” (Bacstop Corporation Pty Ltd, priority 2004, dated 2013).

Legend:
Assay in all cases: Survival of bacteria inoculated into silver-treated water aliquots
Format in all cases: cell-based
[1] = tested on: Bacillus cereus NCTC 10320; settings: initial concentration 5.82
Method: (§1) Several bacterial organisms, E. coli ATCC 11775, Pseudomonas aeruginosa ATCC 27853, and Bacillus cereus NCTC 10320 were inoculated into equal volumes of the abovementioned aliquots to achieve an initial bacterial concentration of approximately 10^6 cells per millilitre. After three predetermined time periods of 5 minutes, 1 hour, and 8 days, aliquots of each solution were withdrawn, and enumeration of surviving organisms was performed. All tests were conducted in duplicate.
(§2) All results are expressed in log10 units.

E. coli ATCC 11775 = settings: initial concentration 5.81
Method: as §1, §2

[2] = tested on: Pseudomonas aeruginosa ATCC 27853; settings: initial concentration 5.62
Method: as §1, §2

[3] = sodium hypochlorite 0.5 ppm, period 5 min
[4] = sodium hypochlorite 0.5 ppm, period 1 hour
[5] = sodium hypochlorite 0.5 ppm, period 8 days

[Na+].[O-]Cl [NaOCl, sodium hypochlorite, reference compound]
surviving organisms, Bacillus cerus [1, 3]: 4.61 log10 units
surviving organisms, Bacillus cerus [1, 4]: 4.61 log10 units
surviving organisms, Bacillus cerus [1, 5]: 4.90 log10 units
surviving organisms, E. coli (E. coli ATCC 11775; [3]): 5.82 log10 units
surviving organisms, E. coli (E. coli ATCC 11775; [4]): 5.81 log10 units
surviving organisms, E. coli (E. coli ATCC 11775; [5]): 4.48 log10 units
surviving organisms, Pseudomonas aeruginosa [2, 3]: 5.62 log10 units
surviving organisms, Pseudomonas aeruginosa [2, 4]: 5.63 log10 units
surviving organisms, Pseudomonas aeruginosa [2, 5]: 4.98 log10 units

[Ag] [Silver, silver]
surviving organisms, Bacillus cerus ([1]; silver 50 ppb, period 5 min): 4.60 log10 units
surviving organisms, Bacillus cerus ([1]; silver 50 ppb, period 1 hour): 2.30 log10 units
surviving organisms, Bacillus cerus ([1]; silver 50 ppb, period 8 days): 0 log10 units
surviving organisms, Bacillus cerus ([1]; silver 111 ppb, period 5 min): 4.20 log10 units
surviving organisms, Bacillus cerus ([1]; silver 111 ppb, period 1 hour): 2.00 log10 units
surviving organisms, Bacillus cerus ([1]; silver 111 ppb, period 8 days): 0 log10 units
surviving organisms, Bacillus cerus ([1]; silver 190 ppb, period 5 min): 4.28 log10 units
surviving organisms, Bacillus cerus ([1]; silver 190 ppb, period 1 hour): 1.93 log10 units
surviving organisms, Bacillus cerus ([1]; silver 190 ppb, period 8 days): 0 log10 units
surviving organisms, Bacillus cerus ([1]; silver 373 ppb, period 5 min): 4.19 log10 units
surviving organisms, Bacillus cerus ([1]; silver 373 ppb, period 1 hour): 0 log10 units
surviving organisms, Bacillus cerus ([1]; silver 373 ppb, period 8 days): 0 log10 units
surviving organisms, E. coli (E. coli ATCC 11775; silver 50 ppb, period 5 min): 5.81 log10 units
surviving organisms, E. coli (E. coli ATCC 11775; silver 50 ppb, period 1 hour): 4.79 log10 units
surviving organisms, E. coli (E. coli ATCC 11775; silver 50 ppb, period 8 days): 0 log10 units
surviving organisms, E. coli (E. coli ATCC 11775; silver 111 ppb, period 5 min): 5.77 log10 units
surviving organisms, E. coli (E. coli ATCC 11775; silver 111 ppb, period 1 hour): 4.48 log10 units
surviving organisms, E. coli (E. coli ATCC 11775; silver 111 ppb, period 8 days): 0 log10 units
surviving organisms, E. coli (E. coli ATCC 11775; silver 190 ppb, period 5 min): 5.76 log10 units
surviving organisms, E. coli (E. coli ATCC 11775; silver 190 ppb, period 1 hour): 3.74 log10 units
surviving organisms, E. coli (E. coli ATCC 11775; silver 190 ppb, period 8 days): 0 log10 units
surviving organisms, E. coli (E. coli ATCC 11775; silver 373 ppb, period 5 min): 5.79 log10 units
surviving organisms, E. coli (E. coli ATCC 11775; silver 373 ppb, period 1 hour): 3.88 log10 units
surviving organisms, E. coli (E. coli ATCC 11775; silver 373 ppb, period 8 days): 0 log10 units
surviving organisms, Pseudomonas aeruginosa ([2]; silver 50 ppb, period 5 min): 5.61 log10 units
surviving organisms, Pseudomonas aeruginosa ([2]; silver 50 ppb, period 1 hour): 5.27 log10 units
surviving organisms, Pseudomonas aeruginosa ([2]; silver 50 ppb, period 8 days): 3.23 log10 units
surviving organisms, Pseudomonas aeruginosa ([2]; silver 111 ppb, period 5 min): 5.61 log10 units
surviving organisms, Pseudomonas aeruginosa ([2]; silver 111 ppb, period 1 hour): 4.98 log10 units
surviving organisms, Pseudomonas aeruginosa ([2]; silver 111 ppb, period 8 days): 2.59 log10 units
surviving organisms, Pseudomonas aeruginosa ([2]; silver 190 ppb, period 5 min): 5.61 log10 units
surviving organisms, Pseudomonas aeruginosa ([2]; silver 190 ppb, period 1 hour): 5.00 log10 units
surviving organisms, Pseudomonas aeruginosa ([2]; silver 190 ppb, period 8 days): 1.10 log10 units
surviving organisms, Pseudomonas aeruginosa ([2]; silver 373 ppb, period 5 min): 5.62 log10 units
surviving organisms, Pseudomonas aeruginosa ([2]; silver 373 ppb, period 1 hour): 5.10 log10 units
surviving organisms, Pseudomonas aeruginosa ([2]; silver 373 ppb, period 8 days): 2.00 log10 units
